Measurements reported in ChEMBL document CHEMBL4364315, “Synthesis and evaluation of cytotoxic and Na+/K+-ATP-ase inhibitory activity of selected 5α-oleandrigenin derivatives” (Eur J Med Chem, 2019).
Active and inactive are the calls of the source. The rule behind the calls is not given here.

Tests used:
[1] = target: T1, Sodium/potassium-transporting ATPase (Sus scrofa) (UniProt P05027+P05024+D2WKD8+D2WKD7+F1ST41); test: Inhibition of porcine kidney Na+/K+-ATPase assessed as residual activity at 50 uM preincubated for 2 mins followed by ATP addition and measured after 6 mins by bagin-sky assay relative to untreated control; type: protein-complex assay
CCRF-CEM [2] = test: Cell cycle arrest in human CEM cells assessed as reduction in cell population at S phase at 15 uM after 24 hrs by RNase A/propidium iodide staining-based flow cytometric analysis; type: functional
HeLa = test: Antiproliferative activity against human HeLa cells assessed as reduction in cell viability after 72 hrs by resazurin dye based assay; type: functional
CCRF-CEM [3] = test: Antiproliferative activity against human CEM cells assessed as reduction in cell viability after 72 hrs by resazurin dye based assay; type: functional
CCRF-CEM [4] = test: Cell cycle arrest in human CEM cells assessed as increase in cell population at G0/G1 phase at 15 uM after 24 hrs by RNase A/propidium iodide staining-based flow cytometric analysis; type: functional
BJ = test: Cytotoxicity against human BJ cells assessed as reduction in cell viability after 72 hrs by resazurin dye based assay
MCF7 = test: Antiproliferative activity against human MCF7 cells assessed as reduction in cell viability after 72 hrs by resazurin dye based assay; type: functional; settings: MCF7, 72 h
A2780 = test: Antiproliferative activity against human A2780 cells assessed as reduction in cell viability after 72 hrs by resazurin dye based assay; type: functional; settings: A2780, 72 h
[5] = target: T1, Sodium/potassium-transporting ATPase (Sus scrofa); test: Inhibition of porcine kidney Na+/K+-ATPase at 50 uM preincubated for 2 mins followed by ATP addition and measured after 6 mins by bagin-sky assay relative to Olean-drigenin; type: protein-complex assay
CCRF-CEM [6] = test: Induction of apoptosis in human CEM cells assessed as PARP-1 cleavage at 15 uM after 24 hrs by Western blot analysis; type: functional, cell-based
CCRF-CEM [7] = test: Induction of apoptosis in human CEM cells assessed as increase in relative activity of caspase-3/7 at 15 uM using AC-DEVD-AMC as substrate after 24 hrs by fluorescence based assay relative to untreated control; type: functional
CCRF-CEM [8] = test: Cell cycle arrest in human CEM cells assessed as accumulation of cells at sub-G1 phase at 15 uM after 24 hrs by RNase A/propidium iodide staining-based flow cytometric analysis; type: functional
Hep 3B2 = test: Antiproliferative activity against human Hep3B cells assessed as reduction in cell viability after 72 hrs by resazurin dye based assay; type: functional
CCRF-CEM [9] = test: Induction of apoptosis in human CEM cells assessed as decrease in Mcl-1 expression at 15 uM after 24 hrs by Western blot analysis; type: functional, cell-based
CCRF-CEM [10] = test: Induction of apoptosis in human CEM cells assessed as caspase-7 fragmentation at 15 uM after 24 hrs by Western blot analysis; type: functional, cell-based
CCRF-CEM [11] = test: Induction of apoptosis in human CEM cells assessed as increase in relative activity of caspase-3/7 at 15 uM using AC-DEVD-AMC as substrate after 24 hrs by fluorescence based assay; type: functional, cell-based
CCRF-CEM [12] = test: Effect on cell cycle analysis in human CEM cells at 15 uM after 24 hrs by RNase A/propidium iodide staining-based flow cytometric analysis; type: functional
CCRF-CEM [13] = test: Cell cycle arrest in human CEM cells assessed as increase in accumulation of cells in G2/M phase after 24 hrs by RNase A/propidium iodide staining-based flow cytometric analysis; type: functional
CCRF-CEM [14] = test: Cell cycle arrest in human CEM cells assessed as increase in accumulation of cells in S phase after 24 hrs by RNase A/propidium iodide staining-based flow cytometric analysis; type: functional
CCRF-CEM [15] = test: Cell cycle arrest in human CEM cells assessed as decrease in cell population at G0/G1 phase at 15 uM after 24 hrs by RNase A/propidium iodide staining-based flow cytometric analysis; type: functional

Row | Structure (SMILES) | Activity [1] | Activity (CCRF-CEM [2]) | IC50 (HeLa) | IC50 (CCRF-CEM [3]) | Activity (CCRF-CEM [4]) | IC50 (BJ) | IC50 (MCF7) | IC50 (A2780) | inhibition [5] | Activity (CCRF-CEM [6]) | fold change (FC) (CCRF-CEM [7]) | Activity (CCRF-CEM [8]) | IC50 (Hep 3B2) | Activity (CCRF-CEM [9]) | Activity (CCRF-CEM [10]) | Activity (CCRF-CEM [11]) | Activity (CCRF-CEM [12]) | Activity (CCRF-CEM [13]) | Activity (CCRF-CEM [14]) | Activity (CCRF-CEM [15])
1 | CO[C@H]1CC[C@@]2(C)[C@@H](CC[C@@H]3[C@@H]2CC[C@]2(C)[C@@H](C4=CC(=O)OC4)[C@@H](O)[C@H]4O[C@]342)C1 | 75% | Active | > 50 µM | > 50 µM | Active | > 50 µM | > 50 µM | > 50 µM | – | – | – | – | – | – | – | – | – | – | – | –
2 | CO[C@H]1C[C@H](O[C@H]2CC[C@@]3(C)[C@H](CC[C@@H]4[C@@H]3CC[C@]3(C)[C@@H](C5=CC(=O)OC5)[C@@H](OC(C)=O)C[C@]43O)C2)O[C@@H](C)[C@@H]1O [OLEANDRIN] | 49% | – | 0.062 µM | 0.019 µM | – | 0.026 µM | 0.033 µM | – | 25% | – | – | – | – | – | – | – | – | – | – | –
3 | CC(=O)O[C@H]1C[C@]2(O)[C@@H]3CC[C@@H]4C[C@@H](O)CC[C@]4(C)[C@H]3CC[C@]2(C)[C@H]1C1=CC(=O)OC1 | 75% | – | 0.2 µM | 0.2 µM | – | 0.1 µM | 0.8 µM | – | – | – | – | – | – | – | – | – | – | – | – | –
4 | CO[C@H]1CC[C@@]2(C)[C@@H](CC[C@@H]3[C@@H]2CC[C@]2(C)[C@@H](C4=CC(=O)OC4)[C@@H](OC(C)=O)[C@@H]4O[C@@]342)C1 | 104% | – | 17.5 µM | 1.3 µM | – | 5.7 µM | 4.4 µM | 4.9 µM | – | Active | <=19 | Active | > 50 µM | Active | Active | – | – | – | – | –
5 | CO[C@H]1CC[C@@]2(C)[C@@H](CC[C@@H]3[C@@H]2CC[C@]2(C)[C@@H](C4=CC(=O)OC4)[C@@H](O)C[C@]32O)C1 | 25% | – | > 50 µM | 14.1 µM | – | > 50 µM | > 50 µM | > 50 µM | – | Active | – | Active | – | – | Active | inactive | – | – | – | –
6 | CO[C@H]1CC[C@@]2(C)[C@@H](CC[C@@H]3[C@@H]2CC[C@]2(C)[C@@H](c4ccoc4)[C@@H](OC(C)=O)C[C@]32O)C1 | 75% | – | > 50 µM | > 50 µM | – | > 50 µM | > 50 µM | > 50 µM | – | – | – | – | > 50 µM | – | – | – | inactive | – | – | –
7 | CO[C@H]1CC[C@@]2(C)[C@@H](CC[C@@H]3[C@@H]2CC[C@]2(C)[C@@H](c4ccoc4)[C@@H](O)[C@H]4O[C@]342)C1 | 101% | – | 11.9 µM | 36.4 µM | – | > 50 µM | 50 µM | 18.4 µM | – | – | – | – | 27.2 µM | – | – | – | – | – | – | –
8 | CO[C@H]1CC[C@@]2(C)[C@@H](CC[C@@H]3[C@@H]2CC[C@]2(C)[C@@H](C4=CC(=O)OC4)[C@@H](OC(C)=O)[C@H]4O[C@]342)C1 | 25% | – | 11.3 µM | 2.5 µM | – | 4.5 µM | 7.6 µM | 1.7 µM | – | Active | – | Active | – | Active | Active | Active | – | – | – | –
9 | CO[C@H]1CC[C@@]2(C)[C@@H](CC[C@@H]3[C@@H]2CC[C@]2(C)[C@@H](C4=CC(=O)OC4)[C@@H](OC(C)=O)C[C@]32O)C1 | 24% | – | 14.8 µM | 5.8 µM | – | 7.9 µM | 21.1 µM | 5.9 µM | – | Active | – | Active | 7.7 µM | – | Active | Active | – | Dose-dependent effect | Dose-dependent effect | Active
